PubChem BioAssay AID1349 (Sanford-Burnham Center for Chemical Genomics, 2008)
Calls of active or inactive are those of the source.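 How the source made its calls: active means survival above the stress-only control level plus 20 points, here above 50%; inactive means the rest.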

What follows are compounds tested on CSM14.1 tunicamycin-induced death, Annexin V/PI flow, 72 h (assay: tunicamycin ER stress death protection – cell-based, undifferentiated CSM14.1, flow cytometry, orthogonal assay for ER stress death inhibitor project, SAR follow-up (AID 1349)). Conditions: at 25 µM; hits give high values.

Compared with `CSc1ccc(C2Nc3ccccc3NC3=C2C(=O)CC(c2ccccc2)C3)cc1` (stereo unspecified), `O=C1CC(c2ccccc2)CC2=C1C(c1c(F)cccc1Cl)Nc1ccccc1N2` (stereo unspecified) is lower in survival: 62% for the first, 58% for the second.

Compared with `CCOc1cc(C2Nc3ccccc3NC3=C2C(=O)CC(c2ccc(OC)cc2)C3)cc(Cl)c1O` (stereo unspecified), `CCCOc1ccc(C2Nc3ccccc3NC3=C2C(=O)CC(c2ccc(OC)c(OC)c2)C3)cc1` (stereo unspecified) is higher in survival: 52% for the first, 74% for the second.

First: COc1ccc(C2CC(=O)C3=C(C2)Nc2ccccc2NC3c2cccc(Br)c2)cc1OC (stereo unspecified)
Second: COc1ccc(C2CC(=O)C3=C(C2)Nc2ccccc2NC3c2cccc(C(F)(F)F)c2)cc1OC (stereo unspecified)
The survival of the first is lower: 67% for the first, 82% for the second.

Compared with `CC1(C)CC(=O)C2=C(C1)Nc1ccccc1NC2c1ccc(-c2ccccc2)cc1` (stereo unspecified), `COc1ccc(C2CC(=O)C3=C(C2)Nc2ccccc2NC3c2cccc(Oc3ccccc3)c2)cc1OC` (stereo unspecified) is lower in survival: 92% for the first, 54% for the second.

First: COc1ccc(C2CC(=O)C3=C(C2)Nc2ccccc2NC3c2cc(C)ccc2C)cc1 (stereo unspecified)
Second: COc1ccc(C2CC(=O)C3=C(C2)Nc2ccccc2NC3c2ccccc2C(F)(F)F)cc1OC (stereo unspecified)
The survival of the first is higher: 70% for the first, 65% for the second.

For `CCOc1cccc(C2Nc3ccccc3NC3=C2C(=O)CC(c2ccc(OC)cc2)C3)c1` (stereo unspecified), the survival was 49% (inactive).
